Data from US12202907B2, “Nucleic acids encoding and methods of producing proteins comprising antibody chains” (Innate Pharma, priority 2018, dated 2025).
Positions count from the first letter of the chain named.

Columns and labels:
allogenic CD4 T cells = experiment: Mixed lymphocytes reaction (MLR) with ATP-activated DC; format: cell-based, human; settings: MoDC activated in presence of ATP and antibody
Experimental: (§1) Briefly, human monocytes were purified from human healthy blood and differentiated into MoDC in presence of GM-CSF and IL-4 during 6 days. Then MoDC were activated in presence of ATP (Sigma, 0.25-1 mM) during 24 hours and DC activation were assessed by analyzing CD80, CD83 and HLA-DR expression by flow cytometry. In some cases, MoDC were preincubated for 1 hour in presence of CD39 inhibitor: […] (Tocris, 250 μM), CD73 inhibitor: APCP (Tocris 50 μM), anti-CD39 blocking antibody I-394 or BY40 (for BY40 see WO2009/095478), or anti-CD73 blocking antibodies. LPS (Invivogen, 10 ng/ml) was used as positive control. To assess resulting effect of ATP-mediated DC activation on CD4 T cells activation, ATP-activated DC were washed and then incubated with allogenic CD4 T cells (ratio 1 MoDC/4 T cells) for a mixed lymphocytes reaction (MLR) during 5 days. T cells activation and proliferation were analyzed through CD25 expression and Cell Trace Violet dilution by flow cytometry (FIG. 8).
Antibodies were tested to assess their efficacy in reducing T cell suppression in the assay described in Example 12. […] T cells activation and proliferation were analyzed through CD25 expression and Cell Trace Violet dilution by flow cytometry.

[1] = molecular target: T1, CD39 mutants transfected in Hek-293T cells (Homo sapiens, UniProt P49961, E143A/N99A/Q96A/R147E); experiment: Epitope mapping: binding to CD39 mutants by flow cytometry; settings: mutant 5: Q96A, N99A, E143A, R147E
T1 construct: expressed in transfected cells; host or cells: HEK293T
T1 sequence (P49961 1-510 Q96A/N99A/E143A/R147E): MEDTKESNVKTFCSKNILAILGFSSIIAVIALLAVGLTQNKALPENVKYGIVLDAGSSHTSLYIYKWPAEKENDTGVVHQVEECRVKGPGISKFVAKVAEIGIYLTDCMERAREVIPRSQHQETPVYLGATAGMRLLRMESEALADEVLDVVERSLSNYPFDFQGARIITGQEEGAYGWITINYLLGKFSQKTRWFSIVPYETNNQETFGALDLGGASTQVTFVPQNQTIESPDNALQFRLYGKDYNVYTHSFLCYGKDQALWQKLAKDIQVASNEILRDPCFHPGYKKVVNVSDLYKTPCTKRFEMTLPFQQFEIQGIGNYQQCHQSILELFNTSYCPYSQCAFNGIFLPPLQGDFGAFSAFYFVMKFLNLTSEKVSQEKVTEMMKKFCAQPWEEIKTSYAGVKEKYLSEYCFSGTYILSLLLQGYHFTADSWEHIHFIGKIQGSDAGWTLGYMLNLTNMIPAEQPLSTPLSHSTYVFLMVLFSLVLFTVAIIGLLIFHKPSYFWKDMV
Experimental: (§2) CD39 mutants were generated by PCR. The sequences amplified were run on agarose gel and purified using the Macherey Nagel PCR Clean-Up Gel Extraction kit (reference 740609). The purified PCR products generated for each mutant were then ligated into an expression vector, with the ClonTech InFusion system. The vectors containing the mutated sequences were prepared as Miniprep and sequenced. After sequencing, the vectors containing the mutated sequences were prepared as Midiprep using the Promega PureYield™ Plasmid Midiprep System. HEK293T cells were grown in DMEM medium (Invitrogen), transfected with vectors using Invitrogen's Lipofectamine 2000 and incubated at 37° C. in a CO2 incubator for 48 hours prior to testing for transgene expression. The targeted amino acid mutations in the table 1 below are shown using numbering of SEQ ID NO: 1.
(§3) In order to define the epitopes of anti-CD39 antibodies, we designed CD39 mutants defined by substitutions of amino acids exposed at the molecular surface over the surface of CD39.
(§4) Dose-ranges of I-394 (10-2.5-0.625-0.1563-0.0391-0.0098-0.0024-0.0006 μg/ml) are tested on the 20 generated mutants by flow cytometry. […] Mutant 5 contains amino acid substitutions at residues Q96, N99, E143 and R147. […]

[2] = molecular target: T2, CD39 mutants transfected in Hek-293T cells (Homo sapiens, UniProt P49961, E142K/M139A/R138A); experiment: as above; settings: mutant 19: R138A, M139A, E142K
T2 construct: expressed in transfected cells; host or cells: HEK293T
T2 sequence (P49961 1-510 R138A/M139A/E142K): T1 sequence (P49961 1-510 Q96A/N99A/E143A/R147E) with A96Q, A99N, R138A, M139A, E142K, A143E, E147R
Experimental: as §2, §3, §4

[3] = test system: monocyte-derived DC (moDC); experiment: Activation of dendritic cells in the presence of ATP; format: cell-based, human; settings: ATP 0.125 mM, 0.25 mM or 0.5 mM; I-394 at 10 μg/ml
Experimental: as §1, with “Then MoDC were activated in presence of ATP (Sigma, 0.25-1 mM) during 24 hours and DC activation were assessed by analyzing CD80, CD83 and HLA-DR expression by flow cytometry.” left out

binding to cells expressing mutant 19 of CD39 [2]: complete loss of binding
Substance: I-394: anti-CD39 antibody, VH SEQ ID NO: 6, VL SEQ ID NO: 7, human IgG1 Fc with L234A/L235E/G237A/A330S/P331S
T cells proliferation and activation in MLR (CD25, Cell Trace Violet dilution) (allogenic CD4 T cells): resulted in higher T cells proliferation and activation | binding to cells expressing mutant 5 of CD39 [1]: strongly reduced binding to mutant 5 (but with some residual binding to mutant 5) | ATP-induced moDC activation (HLA-DR or CD83 expression) [3]: permitted moDC activation
